Four compounds from ChEMBL document CHEMBL4825681, “Iron-Catalyzed Skeletal Conversion of Lathyrane to Premyrsinane Euphorbia Diterpenes and Their Cytotoxic Activities” (J Nat Prod, 2021) can be followed below.

Where only a bound is given, the exact number is not on record here.

The IC50 is the concentration that inhibits the measured activity by half.

This assay has as its system 4T1. Put plainly: Cytotoxicity against mouse 4T1 cells assessed as reduction in cell viability incubated for 24 hrs by MTT assay. Conditions: 4T1, 24 h. It counts as functional, cell-based.
Take `CC(=O)O[C@@H]1[C@H]2[C@@H](OC(=O)c3ccccc3)[C@@H](C)C[C@]2(OC(C)=O)C(=O)[C@@H](C)[C@@H]2[C@@H]3[C@H](CC[C@]21C)C3(C)C`: the IC50 was found to be 2.5 µM.

Consider `CC(=O)O[C@@H]1[C@H]2[C@@H](OC(=O)c3ccccc3)[C@@H](C)C[C@]2(OC(C)=O)C(=O)[C@H](C)[C@@H]2[C@@H]3[C@H](CC[C@]21C)C3(C)C`, for which the concentration for half-maximal inhibition (IC50) stood at 8.2 µM.

On to `C=C1CC[C@H]2[C@@H](/C=C(\C)C(=O)[C@@]3(OC(C)=O)C[C@H](C)[C@H](OC(=O)c4ccccc4)[C@@H]3[C@H]1OC(C)=O)C2(C)C`, for which the IC50 was above 10 µM.

In the case of `CC(=O)O[C@H]1C(=O)[C@@]2(C)[C@H]([C@H](OC(=O)c3ccccc3)[C@]3(O)C[C@H](OC(=O)[C@H](O)[C@@H](NC(=O)c4ccccc4)c4ccccc4)C(C)=C1C3(C)C)[C@]1(OC(C)=O)CO[C@@H]1C[C@@H]2O` [PACLITAXEL], the IC50 is 0.8 µM.
